Test results reported in patent US20230390248A1, “COMPOSITION FOR ENHANCING TUMOR PENETRATION OF ANTICANCER DRUG, COMPRISING LOSARTAN AS ACTIVE INGREDIENT, AND USE THEREOF” (priority 2020, published 2023).

Columns and labels:
Type in all cases: in vivo, BALB/c nude mice
[1] = tested on: hyaluronan; assay: Hyaluronan staining (alcian blue) in gastric cancer tissue; settings: gastric cancer tumor tissue; versus control; FIG. 3B
Procedure: Hyaluronan staining was performed using alcian blue stain kit (Vector laboratories, Burlingame, CA 94010, Alcian Blue (pH 2.5), Stain kit, H-3501). The tissues were sectioned to a thickness of 20 μm. The sections were washed with water to remove excess OCT. Acetic acid was treated to tissue sections for 3 minutes, and then Alcian blue solution was treated at 37° C. for 30 minutes. Excess staining was removed by washing with acetic acid. It was then washed with tap water for 2 minutes and then with distilled water for 1-2 minutes. In addition, the nuclear fast red solution was treated for 5 minutes, and washing was followed with tap water and then with distilled water. The slides were dehydrated in graded alcohol and removed from xylene, and then a cover slip was mounted. The slides were visualized, and images were filmed with Olympus BX53 system microscope (Olympus, life science solution, Waltham, Massachusetts (02453)).

[2] = tested on: gastric cancer (NCI-N87); assay: Treatment efficacy of combined RIT using losartan and ^64Cu-TRZ; settings: compared to the control (PBS); losartan 60 mg/kg s.c. for 25 days; FIG. 5A
Procedure: To identify gastric cancer (NCI-N87) treatment efficacy of the combined therapy using losartan and trastuzumab, the groups were classified into ^64Cu-TRZ treated group (n=7), losartan-included ^64Cu-TRZ treated group (n=7), losartan solely treated group (n=6), TRZ solely treated group (n=6), and PBS treated group (n=8). […] Losartan was delivered subcutaneously (60 mg/kg for 25 days), and TRZ (150 μg) was injected intravenously once at the start of treatment.

[3] = tested on: collagen; assay: Masson trichrome staining of collagen in gastric cancer tissue; settings: gastric cancer tumor tissue; versus control; FIG. 3A
Procedure: Masson trichrome staining was performed for histological visualization of collagen, an extracellular component, which is considered as a disorder when TRZ travels. Tumor tissues were obtained by sacrificing animals. The obtained tissues were fixed overnight in 4% paraformaldehyde and transferred to OCT compounds (Sakura Finetec, USA). The tissues were sectioned to a thickness of 40 μm. Staining was performed according to the kit protocol (Abcam (www.abcam.com) ab150686).
Bouin's Fluid was applied to each section and cultured overnight at room temperature. The slides were washed with water, cultured in Weigert's iron hematoxylin for 5 minutes, then washed with tap water, and cultured in Biebrich scarlet/acid fuchsin solution for […]. Without washing, the slides were re-cultured with aniline blue for 30 minutes. The slides were then washed with water and cultured in acetic acid for 3-5 minutes.
It was also dehydrated in graded alcohol, washed in xylene, and then mounted to a class slide using a mounting medium. The slides were visualized, and images were filmed with the Olympus BX53 system microscope (Olympus, life science solution, Waltham, Massachusetts (02453)).

For `CCCCc1nc(Cl)c(CO)n1Cc1ccc(-c2ccccc2-c2nn[nH]n2)cc1` [losartan], the “hyaluronan (alcian blue staining)” value [1] was “reduced hyaluronan”, the tumor growth response [2] was “tumoricidal response” and the “collagen (masson trichrome staining)” value [3] was “reduced collagen”.
